Data: US10463593B2, “Lupin peptide extracts and skin firmness” (LABORATOIRES EXPANSCIENCE, priority 2014, dated 2019)

Columns and labels:
[1] = system: proteins of the extracellular matrix (chiefly collagens); experiment: Non-enzymatic glycation: incorporation of [3H]-glucose in extracellular matrix proteins deposited by dermal fibroblasts; type: biochemical, human; settings: 1 mg/ml
Description: The non-enzymatic insertion of AGEs in synthesised collagen fibres deposited by human dermal fibroblasts cultured in vitro was examined. A radioactive detection method was used that was based on the incorporation of tritiated glucose in the proteins of the extracellular matrix.
Normal human dermal fibroblasts were cultured in the presence of vitamin C to stimulate the synthesis of collagen. The cells then underwent different operations (freezing/thawing/heating) to inactivate all enzymatic activity.
The matrix layers thus obtained were treated in the presence of the above-described lupin peptide extract at 0.2 and 2%, aminoguanidine HCl at 1 mg/ml (control), 0.2% glucose and [^3H]-glucose radioactive marker for 15 days at 37° C., in the absence of oxygen (rapid re-oxygenation was performed after 7 treatment days).
After incubation, the proteins of the extracellular matrix (chiefly collagens) were extracted using a chaotropic buffer, precipitated with trichloroacetic acid and collected on filters. The radioactivity incorporated in the ECM fibres was measured by liquid scintillation.
The results were analysed statistically using one-factor analysis of variance followed by a Dunnett test, and are given in the Table below: […]

[2] = system: “aged” dermal equivalents seeded with senescent fibroblasts; experiment: Contraction of “aged” dermal equivalents (surface area); type: cell-based; settings: 10 ng/ml; for % “aged” control: area relative to “aged” control; for Area in mm^2 (mean ± SEM): “aged” DEs
Description: A model of dermal equivalents containing fibroblasts allows evaluation of the quality of interactions between fibroblasts and collagen fibres. The free contraction/retraction of these dermal equivalents results from the dynamic activity of the cells which apply tensile forces on the collagen network.
The effect of lupin peptide extract on the contraction of dermal equivalents was evaluated. To induce a condition of fibroblast loss of contractile forces, the dermal equivalents were seeded with senescent so-called “aged” fibroblasts (obtained by successive passaging in accordance with the Hayflick model).
“Aged” or normal dermal equivalents were prepared by mixing the fibroblasts (at passage 8 for normal dermal equivalents or at passage 17 for “aged” dermal equivalents) with a collagen solution.
After full gelling, the dermal equivalents were treated with TGFβ at 10 ng/ml (control) or 0.1% lupin peptide extract and incubated for 4 days.
The dermal equivalents were photographed at D1, D3 and D4 to measure their surface area for determination of contraction.

## Cl.N=C(N)NN [Aminoguanidine, aminoguanidine HCl]
[1]; 15 days at 37° C., control 5527 ± 464
  Incorporation [^3H]-glucose (cpm): 1219 ± 92 cpm
[1]; versus control, p < 0.001
  Inhibition of glycation: −78% p < 0.001

## TGFβ
[2]; significant after a treatment time of 4 days
  Contraction of “aged” DEs (in words): stimulates the contraction of “aged” DEs
[2]; D1
  % “aged” control: 94%
  Area in mm^2 (mean ± SEM): 264.6 ± 5.5 mm^2
[2]; D3
  % “aged” control: 95%
  Area in mm^2 (mean ± SEM): 285.9 ± 6.7 mm^2
[2]; D4, p < 0.05
  % “aged” control: 85 (p < 0.05) %
[2]; D4
  Area in mm^2 (mean ± SEM): 201.3 ± 8.4 mm^2
